Here are results for twelve compounds from PMC10352165, “Miniaturized method for the quantification of persistent organic pollutants and their metabolites in HepG2 cells: assessment of their biotransformation” (Analytical and Bioanalytical Chemistry, 2023).

Series [1] has as its system HepG2 cells. The experiment in a line: Biotransformation experiment in HepG2 (concentration in cells and exposure medium). Conditions: for Biotransformation ratio between metabolites and PHE, cells / Biotransformation ratio between metabolites and PHE, medium: HepG2, 15 mg·L^−1 PHE; for Biotransformation ratio between metabolites and BDE-47, cells / Biotransformation ratio between metabolites and BDE-47, medium: HepG2, 20 mg·L^−1 BDE-47, 48 h; for Concentration in medium, t = 0 h: contaminated medium at time 0, 20 mg·L^−1 BDE-47 nominal; for Concentration in medium, no cells: contaminated medium without cells, 20 mg·L^−1 BDE-47, 48 h.

A further series relates to HepG2. Conditions: HepG2, BDE-47, cited from earlier work.
For series [2] the following is noted: cited from earlier work.
The conditions of series [3]: at 40 °C; cited from earlier work.
Series [4] deals with HepG2 cells. The experiment in a line: Plastic and glass plate exposure test (loss and cell uptake of compound). The format is in vitro ADME. How it is done:
Exposure of HepG2 cells (3 replicates) was performed by initially seeding approximately 2·10^6 cells in glass P100 plates and being incubated for 24 h at 37 °C (5% CO2) with 10 mL of DMEM supplemented with 10% FBS. […] The nominal exposure concentration was estimated by the previous MTT viability study, in which, more than 70% of the cells were alive at the end of the test (lethal concentration 30, LC30) to ensure good metabolizing capacity. Part of the contaminated medium was stored to determine the concentration at time 0 of exposure (“t = 0 h”). In addition, to consider possible analyte loss, a plate of control cells without pollutant (“blank”) and a plate with contaminated medium without cells (“no cells”) were incubated under the same conditions. […] Since the determination of PHE is carried out by LC-FL and its metabolites by GC–MS, the cell pellet was divided in half for each analysis. For this purpose, the adherent cells were lifted in suspension by trypsinization, and the total volume of the homogenous cell suspension was divided in half. Then, the resulting cell pellet from each fraction was collected by centrifuging at 1500 rpm for 5 min and removing the medium. However, for the determination of BDE-47 and its metabolites, the complete pellet obtained is analyzed because a simultaneous extraction is performed for both analyses. The obtained pellet was dried under a gentle stream of nitrogen, weighed on a precision analytical balance (± 0.00001 g), and stored at − 4 °C until analysis. Three independent assays were carried out with the same conditions, each with 3 replicates (plates) of the same concentration.
A major problem in in vitro cell assays is the loss of compound during the exposure process to estimate the effective concentration available to the cell and to correctly assess the toxicity and metabolization kinetics of POPs, as most of them are hydrophobic and semi-volatile. Firstly, when concentration was determined in the exposure and no cells medium samples at the end of the test (48 h) using plastic Petri dishes, a loss of 89% and 84% compared to the t = 0 h sample was found in the cells and no cells sample respectively (Table 1). This loss, similar to that found in previous studies, is mainly explained by absorption into polystyrene, the main component of in vitro culture plates or evaporation processes because these compounds have a Henry law constant (KH) between 1 and 10 Pa·m^3·mol^−1 [11] (7.90 Pa·m^3·mol^−1 for PHE at 35 °C [13] and 3.78 Pa·m^3·mol^−1 for BDE-47 at 40 °C [40]). The remaining concentration in the medium that had not been lost by evaporation or absorbed into the cells was retained in the protein serum. […] A fraction dissolved in the medium accessible to the cells of 3.5% for anthracene (log Kow 4.5) was obtained introducing the conditions of this work into the chemical partitioning model developed by Fischer et al.. […] Therefore, it should be considered to avoid the use of plastic in tests that requires P100 plates with a very high surface area/volume ratio of the medium when studying neutral chemicals with a log Kow > 3, as is the case of PHE (log Kow 4.46 [39]) and BDE-47 (log Kow 6.81 [26]).
Using glass plates, a loss of 47% and 26% for cells and no cells samples, respectively, was found at the end of the assay (48 h) (Table 1), and the concentration absorbed by the cells increased from 4 ± 1 to 18 ± 3%. For BDE-47, a loss of only 14% because of volatilization and an absorbed concentration of 24 ± 2% resulted using a glass plate, as BDE-47 is less volatile and more hydrophobic than PHE, favoring cell uptake. Birch et al. calculated a cell-free fraction of 13% for PHE in HepG2 cells with 10% of FBS in the medium considering the evaporation losses using glass vials. […]

The next series is described as follows: MTT cell viability assay. It counts as cell-based. Conditions: human; HepG2, 48 h of exposure, MTT, polynomial fitting; read-out: LC50 (50% viability). How it is done: (§1) Cell viability was determined by MTT assay. First, 10,000 cells/well were cultured in 96-well plates for 24 h at 37 °C and 5% CO2. After that time, the culture medium was replaced with a culture medium containing different concentrations (0–70 mg·L^−1) of PHE and BDE-47 for 48 h of exposure under the same incubated conditions. After that, 20 μL MTT solution (5 mg·mL^−1 diluted in PBS) was added and incubated for the following 4 h. Viable cellular metabolic reduction of MTT produced formazan crystals, which were dissolved in 100 μL sterile DMSO and quantified with absorbance measurement at 595 nm in a Multiskan Sky High ([…] Thermo Fisher). The cell viability was estimated by using Eq. (1). 1 %Viability=Aexp-Ablank/Acontrol-Ablank∙100 where Acontrol, Aexp, and Ablank are the mean absorbance value (6 replicates) of the control group (cells without pollutant), experimental group, and blank group (only cell culture medium), respectively. Five independent assays were carried out with the same conditions. The results have been subsequently used for the design of the biotransformation experiment.
(§2) Cell viability of each concentration was estimated by using Eq. (1) according to the absorbance values obtained in the MTT assay. The dose–response values were fitted by Origin Pro 2021 with a polynomial equation (shown in Fig. 3) from which the LC value was estimated. LC50 (50% viability) and LC30 (70% viability) were estimated by the polynomial fitting of the mean cell viability data obtained from three independent experiments. Cell viability in HepG2 decreased by 30% at 22 mg·L^−1 PHE and 38 mg·L^−1 BDE-47 and up to 50% at 38 mg·L^−1 PHE and 46 mg·L^−1 BDE-47. […] The calculated LC30 values have been subsequently used for the design of the biotransformation experiments.
Background: Formazan colour is commonly taken as a measure of viable cells.

Series [5] deals with HepG2 cells. The series can be described thus: MTT cell viability assay. It counts as cell-based. Conditions: HepG2, 48 h of exposure, MTT, polynomial fitting. How it is done: as §1, §2
The mark [6] stands for this setting: HepG2 exposed to 15 mg·L^−1 PHE, 48 h, metabolites.
Where [7] appears, read: HepG2 exposed to 20 mg·L^−1 BDE-47, 48 h, metabolites.
Setting [8] is: HepG2 exposed to 20 mg·L^−1 BDE-47, 48 h, parent compound.

Structures are written as SMILES. In brackets after ≈: the same amount, converted by molar mass. Read-outs that look alike come from different tables or passages of the source.

Regarding `Oc1cccc2c1ccc1ccccc12` [1-OH-PHE], in the series on HepG2 cells [1] (48 h), the “Biotransformation ratio between metabolites and PHE, cells” value was determined as 0.01; the “Biotransformation ratio between metabolites and PHE, medium” value was 0.22. Moreover, in the series with HepG2 cells [1] (setting [6]), the “Concentration in cells, samples (n = 3)” value is 72 ± 27 ng/g and the “Concentration in medium, samples” value came out at 7.7 ± 0.9 ng/mL.

For the compound `Oc1ccc2c(ccc3ccccc32)c1` [2-OH-PHE], in the series on HepG2 cells [1] (48 h), the “Biotransformation ratio between metabolites and PHE, cells” value stood at 0.06; the “Biotransformation ratio between metabolites and PHE, medium” value worked out at 0.15. In addition, in the series on HepG2 cells [1] (setting [6]), the “Concentration in cells, samples (n = 3)” value is 284 ± 92 ng/g and the “Concentration in medium, samples” value was found to be 5.2 ± 0.9 ng/mL.

Take `Oc1cc(Br)ccc1Oc1ccc(Br)cc1Br` [2’-OH-BDE-28]: in the series with HepG2 cells [1] (setting [7]), the “Concentration in cells, samples” value was 0.11 ± 0.09 ng/g and the “Concentration in medium, samples” value stood at 3.2 ± 0.2 ng/mL.

`COc1c(Br)ccc(Oc2ccc(Br)cc2Br)c1Br` [3-MeO-BDE-47]: in the series with HepG2 cells [1] (HepG2 exposed to 20 mg·L^−1 BDE-47, 48 h), the “metabolite detection after exposure (in words)” value is “No quantifiable amounts”.

`Oc1c(Br)ccc(Oc2ccc(Br)cc2Br)c1Br` [3-OH-BDE-47]: in the series on HepG2 cells [1], the “Biotransformation ratio between metabolites and BDE-47, cells” value was 0.01; the “Biotransformation ratio between metabolites and BDE-47, medium” value is 0.04. Besides, in the series with HepG2 cells [1] (setting [7]), the “Concentration in cells, samples” value came out at 0.21 ± 0.10 ng/g and the “Concentration in medium, samples” value stood at 4.3 ± 0.2 ng/mL.

In the case of `Oc1ccc2ccc3ccccc3c2c1` [3-OH-PHE], in the series on HepG2 cells [1] (48 h), the “Biotransformation ratio between metabolites and PHE, cells” value worked out at 0.04; the “Biotransformation ratio between metabolites and PHE, medium” value was 0.13. For the same compound, in the series on HepG2 cells [1] (setting [6]), the “Concentration in cells, samples (n = 3)” value is 195 ± 33 ng/g and the “Concentration in medium, samples” value was 4.0 ± 0.7 ng/mL.

Take `Oc1cccc2ccc3ccccc3c12` [4-OH-PHE]: in the series with HepG2 cells [1] (48 h), the “Biotransformation ratio between metabolites and PHE, cells” value is on record as 0.05; the “Biotransformation ratio between metabolites and PHE, medium” value came out at 0.16. Moreover, in the series with HepG2 cells [1] (setting [6]), the “Concentration in cells, samples (n = 3)” value is 260 ± 85 ng/g and the “Concentration in medium, samples” value amounted to 5 ± 1 ng/mL.

For the compound `COc1cc(Oc2ccc(Br)cc2Br)c(Br)cc1Br` [5-MeO-BDE-47], in the series on HepG2 cells [1], the “Biotransformation ratio between metabolites and BDE-47, cells” value was determined as 0.03; the “Biotransformation ratio between metabolites and BDE-47, medium” value was determined as 0.01. For the same compound, in the series with HepG2 cells [1] (setting [7]), the “Concentration in cells, samples” value was found to be 0.12 ± 0.02 ng/g and the “Concentration in medium, samples” value is 1.2 ± 0.9 ng/mL.

`Oc1cc(Oc2ccc(Br)cc2Br)c(Br)cc1Br` [5-OH-BDE-47]: in the series with HepG2 cells [1], the “Biotransformation ratio between metabolites and BDE-47, cells” value is on record as 0.01; the “Biotransformation ratio between metabolites and BDE-47, medium” value worked out at 0.06. In addition, in the series with HepG2 cells [1] (setting [7]), the “Concentration in cells, samples” value was 0.27 ± 0.08 ng/g and the “Concentration in medium, samples” value came to 6.2 ± 0.5 ng/mL.

As to `Brc1ccc(Oc2ccc(Br)cc2Br)cc1` [BDE-28], in the series with HepG2 cells [1] (setting [7]), the “Concentration in cells, samples” value was found to be 18 ± 5 ng/g and the “Concentration in medium, samples” value came out at 577 ± 92 ng/mL. In addition, in the series on HepG2 cells [1] (metabolites), the “Concentration in medium, t = 0 h” value turned out to be 662 ± 18 ng/mL and the “Concentration in medium, no cells” value stood at 651 ± 36 ng/mL.

`Brc1ccc(Oc2ccc(Br)cc2Br)c(Br)c1` [BDE-47, 2,2′,4,4′-tetrabromodiphenyl ether]: in the series on HepG2 cells [1] (setting [8]), the “Concentration in cells, samples” value turned out to be 737000 ± 120000 ng/g and the “Concentration in medium, samples” value is 13000 ± 2000 ng/mL. In addition, in the series with HepG2 cells [1], the “Concentration in medium, t = 0 h” value was determined as 16000 ± 1000 ng/mL and the “Concentration in medium, no cells” value came out at 14000 ± 3000 ng/mL. Besides, in the series on HepG2, the LC50 (in general, the concentration lethal to half of the exposed cells or organisms) was 48.6 µg/mL (≈ 100 µM). Besides, the CC50 with HepG2 (read-out: LC50 (the source's name)) is 100 µM. Also, in series [2], the “log Kow” value is 6.81. In addition, in series [3], the “Henry law constant (KH)” value is listed as 3.78 Pa·m^3·mol^−1. Moreover, the “loss because of volatilization” value in the series on HepG2 cells [4] (glass plate) is 14%. Moreover, the “concentration absorbed by the cells” value in the series with HepG2 cells [4] (glass plates, 48 h) is listed as 24 ± 2%. Further, the CC50 at 48 h in the series “MTT cell viability assay” was determined as 46 µg/mL (≈ 94.7 µM). Further, the “LC30 (70% viability; cell viability decreased by 30%)” value with HepG2 cells [5] was found to be 38 µg/mL (≈ 78.2 µM).

As for `c1ccc2cc3ccccc3cc2c1` [anthracene, reference compound], the “log Kow” value in series [2] (value used with the partitioning model) is listed as 4.5.
